In ChEMBL document CHEMBL1150624, “Discovery of natural products from Curcuma longa that protect cells from beta-amyloid insult: a drug discovery effort against Alzheimer's disease” (2002):
In brackets after ≈: the same amount, converted by molar mass.

How the values were obtained:
PC-12 [1] = test: Protection against beta-amyloid (25 to 35) insult in rat PC12 cells assessed as viable cells after 24 hrs by MTT assay; assay type: functional; settings: PC-12, 24 h, read-out: ED50 (the source's name)
PC-12 [2] = test: Protection against beta-amyloid (1 to 42) insult in rat PC12 cells assessed as viable cells after 24 hrs by MTT assay; assay type: functional; settings: PC-12, 24 h, read-out: ED50 (the source's name)

Structure (SMILES) | EC50 (PC-12 [1]) | EC50 (PC-12 [2])
COc1cc(/C=C/C(=O)/C=C/c2ccc(O)c(OC)c2)ccc1O | > 50 µg/mL | > 50 µg/mL
O=C(/C=C/C=C/c1ccc(O)cc1)/C=C/c1ccc(O)cc1 | > 50 µg/mL | > 50 µg/mL
COc1cc(/C=C/C=C/C(=O)/C=C/c2ccc(O)c(OC)c2)ccc1O | > 50 µg/mL | > 50 µg/mL
COc1cc(/C=C/C(=O)CC(=O)CC(O)c2ccc(O)c(OC)c2)ccc1O (stereo not given) | 30.7 µg/mL (≈ 79.5 µM) | 44.3 µg/mL (≈ 115 µM)
O=C(/C=C/c1ccc(O)cc1)CC(=O)CCc1ccc(O)cc1 | 0.5 µg/mL (≈ 1.61 µM) | 1 µg/mL (≈ 3.22 µM)
O=C(/C=C/c1ccc(O)cc1)CC(=O)/C=C/c1ccc(O)cc1 [BISDEMETHOXYCURCUMIN] | 2 µg/mL (≈ 6.49 µM) | 3.5 µg/mL (≈ 11.4 µM)
COc1cc(/C=C/C(=O)COC(=O)/C=C/c2ccc(O)c(OC)c2)ccc1O [CALEBI A] | 1 µg/mL (≈ 2.6 µM) | 2 µg/mL (≈ 5.2 µM)
Nc1c(/N=N/c2ccc(-c3ccc(/N=N/c4cc(S(=O)(=O)[O-])c5ccccc5c4N)cc3)cc2)cc(S(=O)(=O)[O-])c2ccccc12.[Na+].[Na+] [CONGO RED] | 37.5 µg/mL | 39.2 µg/mL
COc1cc(/C=C/C(=O)CC(=O)/C=C/c2ccc(O)c(OC)c2)ccc1O [CURCUMIN] | 7 µg/mL (≈ 19 µM) | 10 µg/mL (≈ 27.1 µM)
COc1cc(/C=C/C(O)=C/C(=O)/C=C/c2ccc(O)cc2)ccc1O [DEMETHOXYCURCUMIN] | 4 µg/mL (≈ 11.8 µM) | 5 µg/mL (≈ 14.8 µM)
